Results taken from patent US20250073255A1, “USE OF FA-TYPE LIPID COMPOUNDS IN PREPARATION OF NUCLEIC ACID DELIVERY REAGENT AND RELATED PRODUCT” (BEIJING BAISHIKANG PHARMACEUTICAL TECHNOLOGY (BSJPHARMA) …, priority 2021, published 2025).

System: C57BL/6 male mice
Assay: In vivo delivery study of lipid nucleic acid mixture (oral gavage, RT-qPCR of PGY-sRNA-26 in tissues)
Set-up: species or system mouse
Conditions: for oral delivery of single-stranded sRNA nucleic acids into mouse blood / oral delivery of single-stranded sRNA nucleic acids into mouse brain tissue / oral delivery of single-stranded sRNA nucleic acids into mouse femur / oral delivery of single-stranded sRNA nucleic acids into mouse intestinal tissue / oral delivery of single-stranded sRNA nucleic acids into mouse liver tissue / oral delivery of single-stranded sRNA nucleic acids into mouse lung tissue / oral delivery of single-stranded sRNA nucleic acids into mouse spleen tissue / oral delivery of single-stranded sRNA nucleic acids into mouse stomach tissue / oral delivery of single-stranded sRNA nucleic acids into mouse heart tissue / oral delivery of single-stranded sRNA nucleic acids into mouse kidney tissue / oral delivery of single-stranded sRNA nucleic acids into mouse pancreatic tissue: 100 μg lipid:10 nmol PGY-sRNA-26, sampled after 12 hours; for oral delivery of single-stranded sRNA nucleic acids into mouse intestinal tissue: intestine; for oral delivery of single-stranded sRNA nucleic acids into mouse heart tissue: vs free uptake group; for oral delivery of single-stranded sRNA nucleic acids into mouse pancreatic tissue: pancreas; for overall delivery efficacy: delivering nucleic acids into each tissue and blood tested: 100 μg lipid:10 nmol PGY-sRNA-26, all tissues and blood tested
Description: 10 nmol of small RNA (as shown in Table 2) was dissolved in 400 μl of DEPC-treated water in a glass tube, 10 μl of the corresponding lipid stock solution was added such that the lipid mass in the system was 100 μg. The mixture was mixed thoroughly, heated in a 90° C. water bath for 15 minutes, and then cooled naturally to obtain the lipid nucleic acid mixture of lipid and small RNA.
C57BL/6 male mice, approximately 6 weeks old, weighing […], were obtained from Beijing Vital River Laboratory Animal Technology Co., Ltd. The mice were housed in the SPF-grade animal facility at the Animal Center of the Institute of Basic Medical Sciences, Chinese Academy of Medical Sciences. The mice were fasted for 12 hours before gavage administration.
The lipid nucleic acid mixture was prepared following the method described in Example 2. The resultant lipid nucleic acid mixture was orally administered to each mouse at a dose of 100 μg lipid:10 nmol single-stranded 3-methylated small RNA PGY-sRNA-26.
• 1) Blank group (n=4): mice were administered with 500 μl saline by gavage, this group served as a blank control; • 2) Free uptake group (n=4): mice were directly administered with small RNA PGY-sRNA-26 solution (10 nmol/mouse, 500 l) by gavage, this group served as a negative control; • 3) Lipid-treated group (n=4): mice were administered with 500 μl lipid nucleic acid mixture prepared in step 2 by gavage.
After 12 hours of gavage administration, 500 μl blood from the eyeball of each mouse was sampled, added to 1.5 ml Trizol Reagent LS (purchased from Invitrogen), thoroughly mixed for lysis. 3 ml of Trizol Reagent LSwas added to tissue samples and homogenized for complete lysis, wherein the sampled tissues include heart, liver, spleen, lung, kidney, stomach, intestine, brain, blood, femur, pancreas. RNAwas extracted from 1 ml of the blood or the tissue lysate following the steps below: • Centrifuge at 4° C., 12,000 rpm for 5 min, discard the precipitate, transfer Trizol to a new centrifuge tube; • Add chloroform at 200 μL chloroform/mL Trizol, shake well, stand at room temperature for 5 min; • Centrifuge at 4° C., 12,000 rpm for 15 min; • Take the upper aqueous phase to another centrifuge tube, add isopropanol at 0.4 mL isopropanol/mL Trizol, mix well, and stand at low temperature for 10-20 min; • Centrifuge at 4° C., 12,000 rpm for 15 min, discard the supernatant, RNA precipitated at the bottom of the tube; • Add 1 mL of 75% ethanol, gently shake the centrifuge tube, suspend the precipitate; • Centrifuge at 4° C., 12,000 rpm for 15 min, discard the supernatant, add 1 mL of 75% ethanol, gently shake the centrifuge tube, suspend the precipitate; • Centrifuge at 4° C., 12,000 rpm for 15 min, discard the supernatant, air-dry at room temperature, dissolve RNA samples in 50 μL RNase-free H2O, measure OD value to quantify RNA concentration. 3.3 Reverse Transcription of sRNA to cDNA:
sRNA was reverse transcribed to cDNA using the High-Capacity cDNA Reverse Transcription Kit (Applied Biosystems, cat. no. 4368813) by stem-loop method (see, e.g., “Real-time quantification of microRNAs by stem-loop RT-PCR, Nucleic Acids Res. 2005 Nov. 27; 33(20):e179”, incorporated herein by reference). The reverse transcription system is as follows: Template RNA (200 ng/μL) 10 μL, 10×RT Buffer 2.0 μL, 25×dNTP Mix (100 mM) 0.8 μL, U6 RT stem-loop primer (10 μM) 2.0 μL, PGY-sRNA-26 RT stem-loop primer (10 μM) 2.0 μL, MultiScribe™ Reverse Transcriptase (50 U/μL) 1.0 μL, RNAse Inhibitor (40 U/μL) 1.0 μL, nuclease-free H2O 1.2 μL. After transient centrifugation, the reverse transcription system was placed in a PCR machine with the following reaction conditions: (1) 25° C., 10 min; (2) 37° C., 120 min; (3) 85° C., 5 min; (4) 4° C., stop reaction. After the reaction, add 20 μL RNAse-free ddH2O, adjust the final volume to 40 μL. […]

Row | SMILES | oral delivery of single-stranded sRNA nucleic acids into mouse blood | oral delivery of single-stranded sRNA nucleic acids into mouse brain tissue | oral delivery of single-stranded sRNA nucleic acids into mouse femur | oral delivery of single-stranded sRNA nucleic acids into mouse intestinal tissue | oral delivery of single-stranded sRNA nucleic acids into mouse liver tissue | oral delivery of single-stranded sRNA nucleic acids into mouse lung tissue | oral delivery of single-stranded sRNA nucleic acids into mouse spleen tissue | oral delivery of single-stranded sRNA nucleic acids into mouse stomach tissue | oral delivery of single-stranded sRNA nucleic acids into mouse heart tissue | oral delivery of single-stranded sRNA nucleic acids into mouse kidney tissue | oral delivery of single-stranded sRNA nucleic acids into mouse pancreatic tissue | overall delivery efficacy: delivering nucleic acids into each tissue and blood tested
1 | CCCC(=O)CC(=O)N[C@H]1CCOC1=O [Lipid 622, 3-oxo-N-[(3S)-2-oxooxolan-3-yl]hexanamide] | can effectively orally deliver | can effectively orally deliver | can effectively orally deliver | can effectively orally deliver | can effectively orally deliver | can effectively orally deliver | can effectively orally deliver | can effectively orally deliver | – | – | – | –
2 | CC/C=C/C=C/C=O [Lipid 618, (2E,4E)-hepta-2,4-dienal] | – | can effectively orally deliver | can effectively orally deliver | can effectively orally deliver | can effectively orally deliver | can effectively orally deliver | – | – | – | – | – | –
3 | CCCCCC/C=C\CCCCCCCC(=O)OCCCCCCCCCCCCCCCCCCCCC [Lipid 820, henicosyl (Z)-hexadec-9-enoate] | can effectively orally deliver | can effectively orally deliver | can effectively orally deliver | can effectively orally deliver | can effectively orally deliver | can effectively orally deliver | can effectively orally deliver | can effectively orally deliver | can effectively orally deliver | can effectively orally deliver | can effectively orally deliver | –
4 | C=C(C)CCOC(=O)CCCCCCCCCCCCCCCCCCCCC [Lipid 815, 3-methylbut-3-enyl docosanoate] | can effectively orally deliver | can effectively orally deliver | can effectively orally deliver | can effectively orally deliver | can effectively orally deliver | can effectively orally deliver | can effectively orally deliver | can effectively orally deliver | can effectively orally deliver | can effectively orally deliver | can effectively orally deliver | –
5 | COc1cc(CNC(=O)CCCC/C=C/C(C)C)ccc1O [Lipid 537] | can effectively orally deliver | can effectively orally deliver | can effectively orally deliver | can effectively orally deliver | can effectively orally deliver | can effectively orally deliver | can effectively orally deliver | can effectively orally deliver | can effectively orally deliver | can effectively orally deliver | – | best delivery efficacy
6 | CCCCCCCC(C)C [Lipid 528, 2-methylnonane] | can effectively orally deliver | can effectively orally deliver | can effectively orally deliver | can effectively orally deliver | can effectively orally deliver | can effectively orally deliver | can effectively orally deliver | can effectively orally deliver | can effectively orally deliver | can effectively orally deliver | – | best delivery efficacy
7 | CCCCC/C=C\C/C=C\C/C=C\C/C=C\CCCC(=O)NCCCO [Lipid 808, (5Z,8Z,11Z,14Z)-N-(3-hydroxypropyl)icosa-5,8,11,14-tetraenamide] | can effectively orally deliver | can effectively orally deliver | can effectively orally deliver | can effectively orally deliver | can effectively orally deliver | can effectively orally deliver | can effectively orally deliver | can effectively orally deliver | can effectively orally deliver | can effectively orally deliver | can effectively orally deliver | –
8 | CC1(O)CCCC1 [Lipid 503] | can effectively orally deliver | can effectively orally deliver | – | can effectively orally deliver | can effectively orally deliver | can effectively orally deliver | can effectively orally deliver | can effectively orally deliver | – | can effectively orally deliver | – | –
